Data from a compilation of properties of binary mixtures (doi:10.1016/j.jct.2020.106383).

Test: xn = mol fraction of the nth substance listed
Details: 100 kPa

CCOC(C)=O + CCCC[n+]1ccn(C)c1.O=S(=O)([N-]S(=O)(=O)C(F)(F)F)C(F)(F)F
speed of sound [m/s]
Details | x2 = 0 | x2 = 0.1045 | x2 = 0.2067 | x2 = 0.3058 | x2 = 0.4012 | x2 = 0.5002 | x2 = 0.6065 | x2 = 0.7081 | x2 = 0.7932 | x2 = 0.9087
298.15 K | 1143.2 | – | 1172 | 1182.9 | 1192 | – | 1207.6 | 1213.7 | 1218.2 | –
303.15 K | 1120.8 | 1137.6 | 1151.9 | 1164 | 1174.2 | 1183.4 | 1192 | 1199.3 | – | 1211.6
308.15 K | 1098.7 | 1116.7 | 1132.1 | 1145.3 | – | 1166.9 | 1176.7 | 1185.1 | 1191.5 | 1199.6
313.15 K | 1076.4 | 1095.5 | 1112.1 | 1126.5 | 1138.8 | 1150.3 | 1161.3 | – | – | 1187.7
318.15 K | – | 1074.5 | – | 1107.8 | 1121.2 | – | 1146.1 | – | 1165.2 | –
323.15 K | 1032 | 1053.5 | 1072.5 | – | 1103.7 | 1117.4 | 1130.9 | 1142.8 | – | 1164.3

CCCC[n+]1ccn(C)c1.O=S(=O)([N-]S(=O)(=O)C(F)(F)F)C(F)(F)F + CCOC(C)=O
x1 = 1
Details | speed of sound [m/s]
298.15 K | 1227.9
303.15 K | 1216.8
308.15 K | 1205.8
313.15 K | 1195
318.15 K | 1184.2
323.15 K | 1173.6
